Results from patent US9448244B2, “Compound, and method for measuring iron concentration by using novel compound as chelate color former” (WAKO PURE CHEMICAL INDUSTRIES, LTD., priority 2012, dated 2016).
“Also recorded” adds a separate entry of the source.

How the values were obtained:
[1] = Absorbance measurement of iron chelate color development, first reagent solution pH 8.0 (Example 3 / Comparative Example 1); type: physicochemical; conditions: aqueous iron solution 200 μg/dL; R-1 tricine pH 8.0, R-2 tricine pH 8.0; color former 0.23 mM; 37° C.
Description: (§1) [Preparation of Reagent Solution]
(§2) (R-1) First Reagent Solution:
A 100 mM tricine buffer solution (pH 8.0) containing 0.5% (w/v) polyvinylpyrrolidone (K-90) (produced by Wako Pure Chemical Industries, Ltd.) was used as the first reagent solution.
(§3) (R-2) Second Reagent Solution:
A 100 mM tricine buffer solution (pH 8.0) containing 1 mM 4S-SPF synthesized in Example 1 or 1 mM 2S-4CPF synthesized in Example 2 was used as the second reagent solution.
Aqueous ferrous ammonium sulfate solution (containing 200 μg/dL iron) was prepared and used as a sample.
(§4) [Measurement of Absorbance]
For the above-described sample, the measurement of absorbance was carried out using the reagent solution described above, and using JEOL BM6050 automatic analyzer (manufactured by JEOL Co., Ltd.) by the following measurement conditions. In addition, when the measurement of reagent blank, measurement was carried out in the same manner using physiological saline instead of the sample.
Analysis method/Reaction time: [EPA] [10]
Measurement point: [44], [47]-[95], [98].
Wavelength (secondary/dominant): [694] [596]
Sample volume: 8 μL (2 times dilution at measurement)
Measurement temperature: 37° C.
It should be noted that the concentration of 4S-SPF or 2S-4CPF at the time of measurement was 0.23 mM.
A 100 mM tricine buffer solution (pH 8.0) containing 0.5% (w/v) polyvinylpyrrolidone (K-90) was used as the first reagent solution.
A 100 mM tricine buffer solution (pH 8.0) containing 1 mM CPF was used as the second reagent solution. The CPF was synthesized according to the method described in the Mitsuru Hoshino et al., Yakugaku Zassi, 2011, vol. 131, No. 7, p. 1095-1101 (Non-Patent Literature 1), and used.
Aqueous ferrous ammonium sulfate solution (containing 200 μg/dL iron) prepared and used as a sample.
For the above-described sample, the measurement of absorbance was carried out using the reagent solution described above and using JEOL BM6050 automatic analyzer (manufactured by JEOL Co., Ltd.) by the same measurement conditions as performed in Example 3. […]

[2] = Absorbance measurement of iron chelate color development, first reagent solution pH 3.2 (Example 4 / Comparative Example 2); type: physicochemical; conditions: aqueous iron solution 200 μg/dL; R-1 glycine pH 3.2 (condition of serum iron measurement), R-2 tricine pH 9.0; color former 0.23 mM
Description: as §1, §2
A 10 mM glycine buffer solution (pH 3.2) containing 0.5% (w/v) polyvinylpyrrolidone (K-90) (produced by Wako Pure Chemical Industries, Ltd.) was used as the first reagent solution.
as §3
A 100 mM tricine buffer solution (pH 9.0) containing 1 mM 4S-SPF which was synthesized in Example 1 or 1 mM 2S-4CPF which was synthesized in Example 2 was used as the second reagent solution.
The sample used was same as used in Example 3.
as §4
For the above-described sample, the measurement of absorbance was carried out using the reagent solution described above and using JEOL BM6050 automatic analyzer (manufactured by JEOL Co., Ltd.) by the same measurement conditions as performed in Example 3.
It should be noted that, the concentration of 4S-SPF or 2S-4CPF at the time of measurement was 0.23 mM.
A 10 mM glycine buffer solution (pH 3.2) containing 0.5% (w/v) polyvinylpyrrolidone (K-90) was used as the first reagent solution.
A 100 mM tricine buffer solution (pH 9.0) containing 1 mM CPF was used as the second reagent solution. CPF was synthesized according to the method described in the Mitsuru Hoshino et al., Yakugaku Zassi, 2011, vol. 131, No. 7, p. 1095-1101 (Non-Patent Literature 1), and used.
The sample used was the same as used in Example 4.
For the above-described sample, the measurement of absorbance was carried out using the reagent solution described above and using JEOL BM6050 automatic analyzer (manufactured by JEOL Co., Ltd.) by the same measurement conditions as performed in Example 4.
It should be noted that, the concentration of the CPF at the time of measurement was 0.23

SMILES | color fading after color development [1] | color fading after color development [2]
O=C(O)c1ccccc1-c1c2cc(O)c(=O)cc-2oc2cc(O)c(O)cc12 [CPF, 9-(2-carboxyphenyl)-2,3,7-trihydroxy-6-fluorone, reference compound] | color fading after color development was observed | color fading after color development was observed; also recorded: fading after color development was remarkable
O=c1cc2oc3cc(O)c(O)cc3c(-c3ccc(S(=O)(=O)O)cc3S(=O)(=O)O)c-2cc1O [4S-SPF, 9-(2,4-disulfophenyl)-2,3,7-trihydroxy-6-fluorone] | color fading was not confirmed | fading after color development was not observed
O=C(O)c1ccc(-c2c3cc(O)c(=O)cc-3oc3cc(O)c(O)cc23)c(S(=O)(=O)O)c1 [2S-4CPF, 9-(4-carboxy-2-sulfophenyl)-2,3,7-trihydroxy-6-fluorone] | color fading was not confirmed | fading after color development was not observed
